Reference: patent US20070155803A1, “Protease inhibitors” (ProZymex A/S, priority 2003, published 2007)
Square brackets hold non-standard residues; d marks the D form. Peptide text beside a SMILES is read from it. Phe(3-F) = N[C@@H](Cc1cccc(F)c1)C(=O)O; hPhe = N[C@@H](CCc1ccccc1)C(=O)O; Abu = CC[C@H](N)C(=O)O; azaGly = NNC(=O)O

Columns and labels:
[1] = biological target: T1, Human liver cathepsin H (Homo sapiens, UniProt P09668); assay: Human liver cathepsin H assay; type: biochemical
T1 construct: Human liver catheptin H (Enzyme System Products Cath-1; 25 μg); purchased Enzyme System Products Cath-1; host or cells: human liver
T1 sequence (P09668 98-335): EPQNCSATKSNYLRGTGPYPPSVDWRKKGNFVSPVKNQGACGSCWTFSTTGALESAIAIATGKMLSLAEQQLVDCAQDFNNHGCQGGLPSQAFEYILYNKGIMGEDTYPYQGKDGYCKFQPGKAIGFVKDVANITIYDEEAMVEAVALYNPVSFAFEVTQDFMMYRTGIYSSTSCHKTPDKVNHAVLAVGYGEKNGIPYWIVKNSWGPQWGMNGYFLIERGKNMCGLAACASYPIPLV
Protocol: Human Liver Cathepsin H Assay
Using this assay, the selectivity of a compound of the invention for hDPP-I over human cathepsin H was determined, using a fluorogenic substrate.
Human liver catheptin H (Enzyme System Products Cath-1; 25 μg) was solubilized in 60 μL enzyme buffer (giving a stock with a concentration of 417 ng/μL). Enzyme stock (5 μL) was diluted with 1245 μL enzyme-buffer. Prior to running experiment 1 μL 0.5 M DTT/100 μL enzyme solution was added. Incubated for 5 minutes on ice, then added to reaction mixture.
ARG-AFC*2HBR (Enzyme System Products AF002; 10.6 mg) was dissolved in 1 mL DMSO, giving a 20 mM solution. Km for this substrate has been determined to be 27 μM
The assay was performed in 96-well plates. 50 μL assay buffer was added to the well followed by 25 μL reference inhibitor (cystatin; stock 1 mg/mL, diluted with assay buffer to give 10 nM in assay) or a compound of the invention (diluted with assay buffer to give 10 μM in the assay). Then 25 μL (40 ng) enzyme was added, and 1 min. later (at 37° C.), 100 μL ARG-AFC substrate (15 μM in the assay) was added. The excitation wavelength was 400 nm, and the emission was measured at 505 nm for 10-20 minutes at 37° C. […] In the software (SOFTmax Pro) used for data collection from the fluorometer (Molecular Devices: Gemini XS) it was ensured that the measured slopes were linear (R^2>0.99). […]

[2] = biological target: T2, CYP2C9 (Homo sapiens, UniProt P11712); assay: CYP2C9 assay (Vivid CYP2C9 Red Screening Kit); type: in vitro ADME; settings: 20 μM cutoff; read-out: Metabolism: CYP enzymes (20 μM cutoff or IC50) CYP2C9
T2 construct: purchased PanVera Vivid CYP2C9 Red Screening Kit
Protocol: (§1) Tubes thawed on ice. 2× reaction buffer dispensed (room temperature) in two eppendorf tubes (for Mix A and Mix B).
(§2) Controls or compounds of the invention: Diluted to a concentration of 50 μM. Positive control compound: α-naphthoflavone.
(§3) Negative controls: DMSO and H2O.
(§4) Mix A: 485 μL reaction buffer, 10 μL regeneration system, 5 μL Baculosome reagent. Mixed gently and placed on ice.
(§5) Mix B: 88.5 μL reaction buffer, 1.5 μL substrate, 10 μL 10 mM NADP^+.
(§6) In a 96-well plate (Costar c-3904), 40 μL of 50 μM sample dispensed. 50 μl Mix A added. Incubated 20 min. at rt. Then, 10 μl of Mix B added. Fluorescence determined (Molecular Devices, SPECTRAmax Gemini EM): Ex: 409 nm, Em: 460 nm, at 37° C. for 20 min. (Automix: 5 s, top read.).
(§7) Following the procedure for CYP1A2, using the appropriate kits below, the effect of a compound of the invention on the other CYP enzymes was determined:
Vivid® CYP2C9 Red Screening Kit from PanVera.

[3] = biological target: T3, CYP2D6 (Homo sapiens, UniProt P10635); assay: CYP2D6 assay (Vivid CYP2D6 Cyan Screening Kit); type: in vitro ADME; settings: 20 μM cutoff; read-out: Metabolism: CYP enzymes (20 μM cutoff or IC50) CYP2D6
T3 construct: purchased PanVera Vivid CYP2D6 Cyan Screening Kit
Protocol: as §1, §2, §3, §4, §5, §6, §7
Vivid® CYP2D6 Cyan Screening Kit from PanVera.

T2 sequence (P11712 whole entry): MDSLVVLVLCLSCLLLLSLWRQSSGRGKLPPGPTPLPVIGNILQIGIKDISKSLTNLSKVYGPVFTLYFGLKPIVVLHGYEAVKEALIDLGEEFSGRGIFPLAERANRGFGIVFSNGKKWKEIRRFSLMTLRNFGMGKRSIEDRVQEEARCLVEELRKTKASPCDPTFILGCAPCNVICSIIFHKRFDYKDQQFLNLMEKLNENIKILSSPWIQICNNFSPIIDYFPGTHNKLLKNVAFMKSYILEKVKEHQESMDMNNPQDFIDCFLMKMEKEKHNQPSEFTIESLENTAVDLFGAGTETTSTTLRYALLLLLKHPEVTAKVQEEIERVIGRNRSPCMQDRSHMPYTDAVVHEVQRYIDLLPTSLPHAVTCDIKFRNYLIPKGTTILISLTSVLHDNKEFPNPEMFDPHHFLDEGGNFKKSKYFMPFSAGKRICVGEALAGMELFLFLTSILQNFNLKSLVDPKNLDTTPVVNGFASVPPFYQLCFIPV
T3 sequence (P10635 whole entry): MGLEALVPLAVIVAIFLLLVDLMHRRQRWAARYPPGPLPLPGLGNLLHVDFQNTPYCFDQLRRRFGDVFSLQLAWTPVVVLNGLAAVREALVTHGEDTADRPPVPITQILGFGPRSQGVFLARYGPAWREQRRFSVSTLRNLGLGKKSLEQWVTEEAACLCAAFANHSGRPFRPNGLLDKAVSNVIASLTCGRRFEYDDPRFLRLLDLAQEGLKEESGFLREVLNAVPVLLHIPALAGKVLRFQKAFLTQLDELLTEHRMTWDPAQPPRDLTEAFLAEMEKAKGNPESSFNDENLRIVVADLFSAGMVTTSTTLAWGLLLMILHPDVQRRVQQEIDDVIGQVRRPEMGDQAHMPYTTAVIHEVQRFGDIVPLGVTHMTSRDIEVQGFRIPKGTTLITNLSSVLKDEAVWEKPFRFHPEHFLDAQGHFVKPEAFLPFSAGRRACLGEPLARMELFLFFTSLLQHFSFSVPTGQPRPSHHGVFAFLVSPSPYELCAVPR

CC[C@H](N)C(=O)NNC(=O)N[C@@H](CCc1ccccc1)C(=O)N[C@@H](Cc1cccc(F)c1)C(N)=O [Example 11, 1-(2S-2-Aminobutanoyl)-4-[2S-N-[2S-3-(m-fluorophenyl)propan-2-yl-amide]-4-phenylbutan-2-yl-amide]semicarbazide] (H-[Abu][azaGly][hPhe][Phe(3-F)]-NH2)
Inhibition of Cathepsin H (in words) [1]: does not inhibit
IC50 ([1]; human liver cathepsin H, read-out: Secondary enzymatic screening (10 μM cutoff or IC50) Cathepsin H): 3.2 µM
IC50 [2]: > 20 µM
IC50 [3]: > 20 µM
